Earlier results on one molecule are cited in US9820991B2, “Pharmaceutical composition comprising brinzolamide” (SENTISS PHARMA PVT. LTD., priority 2013, dated 2017).

The conditions of the series: in tear fluid.

In the case of `CCN[C@H]1CN(CCCOC)S(=O)(=O)c2sc(S(N)(=O)=O)cc21` [brinzolamide, (R)-(+)-4-Ethylamino-2-(3-methoxypropyl)-3,4-dihydro-2H-thieno [3,2-e]-1,2-thiazine-6-sulfonamide-1,1-dioxide], the solubility result was “around 0.08%”.
